Data: patent US20250026748A1, “N-(5-SUBSTITUTED-[(1,3,4-THIADIAZOLYL) OR (THIAZOLYL)])(SUBSTITUTED)CARBOXAMIDE COMPOUNDS AND USE THEREOF FOR INHIBITING HUMAN POLYMERASE THETA” (Repare Therapeutics Inc., priority 2021, published 2025)

These compounds were tested against PolQ ATPase enzyme (1-894) (Homo sapiens (Human), UniProt O75417) (assay: Polθ ATPase enzymatic assay (0.5 nM enzyme concentration), ADP-Glo). Conditions: average IC50; 0.5 nM PolQ ATPase enzyme (1-894).
Type: biochemical
Outline: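 Enzyme (0.5 nM) pre-incubated 15 min at rt with 10-point inhibitor series in 50 mM Tris pH 7.5, 10% glycerol, 5 mM DTT, 10 mM MgCl2, 0.1 mg/ml BSA; reaction started with 20 nM fork DNA and 100 μM ATP, run 180 min at rt. ADP-Glo luminescence; IC50 from 4-parameter variable-slope fit.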

Chain of PolQ ATPase enzyme (1-894) (O75417 1-894): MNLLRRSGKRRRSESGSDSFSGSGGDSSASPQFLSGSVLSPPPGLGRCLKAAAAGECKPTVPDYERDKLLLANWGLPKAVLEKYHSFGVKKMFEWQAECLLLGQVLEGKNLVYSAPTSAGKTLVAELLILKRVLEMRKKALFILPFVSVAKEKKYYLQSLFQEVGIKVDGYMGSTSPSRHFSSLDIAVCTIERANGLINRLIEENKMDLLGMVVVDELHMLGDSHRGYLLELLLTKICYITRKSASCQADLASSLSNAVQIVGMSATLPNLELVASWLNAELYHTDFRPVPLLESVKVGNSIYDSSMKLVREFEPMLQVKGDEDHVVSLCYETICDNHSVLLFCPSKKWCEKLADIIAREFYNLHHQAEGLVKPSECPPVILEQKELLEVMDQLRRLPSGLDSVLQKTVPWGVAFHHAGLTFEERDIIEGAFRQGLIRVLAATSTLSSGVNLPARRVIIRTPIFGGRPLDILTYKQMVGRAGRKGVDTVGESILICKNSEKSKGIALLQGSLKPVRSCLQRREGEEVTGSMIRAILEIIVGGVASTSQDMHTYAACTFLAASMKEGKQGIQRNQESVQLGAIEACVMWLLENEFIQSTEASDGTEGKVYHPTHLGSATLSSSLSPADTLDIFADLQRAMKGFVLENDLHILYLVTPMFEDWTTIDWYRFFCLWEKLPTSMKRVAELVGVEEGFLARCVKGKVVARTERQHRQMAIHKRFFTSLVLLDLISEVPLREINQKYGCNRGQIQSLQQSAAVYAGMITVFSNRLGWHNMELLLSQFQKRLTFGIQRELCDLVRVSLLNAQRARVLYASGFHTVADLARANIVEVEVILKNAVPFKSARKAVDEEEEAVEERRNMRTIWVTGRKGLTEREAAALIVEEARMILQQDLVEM

IC50 [nM]	SMILES
< 0.25	COc1cnc(C(F)F)cc1-c1cc(-n2ccccc2=O)ncc1C(=O)Nc1nnc(C#CC2CC2)s1 [Compound 122, N-(5-(cyclopropylethynyl)-1,3,4-thiadiazol-2-yl)-2″-(difluoromethyl)-5″-methoxy-2-oxo-2H-[1,2′:4′,4″-terpyridine]-5′-carboxamide]
2.6	O=C(Nc1ncc(C#CC2CC2)s1)c1cc(=O)n(Cc2ncco2)cc1-c1cc(C(F)F)ccc1Cl [Compound 207]
< 0.25	COc1cnc(C(F)F)cc1-c1cc(-n2cccc(Cl)c2=O)ncc1C(=O)Nc1nnc(C#CC2CC2)s1 [Compound 455]
2.1	COc1ccc(C(F)(F)F)cc1-c1cn(C)c(=O)cc1C(=O)Nc1nnc(C#CC2CC2)s1 [Compound 80]
0.27	COCCn1ccc(-c2cc(-c3cc(C(F)F)ncc3OC)c(C(=O)Nc3nnc(C#CC4CC4)s3)cn2)n1 [Compound 427]
0.49	COc1cnc(C(F)F)cc1-c1cc(N2CCC(C)(C)CC2=O)ncc1C(=O)Nc1nnc(C#CC2CC2)s1 [Compound 353]
2.1	COc1cnc(C(F)F)cc1-c1cc(-c2cnn(C3CCNCC3)c2)ncc1C(=O)Nc1nnc(C#CC2CC2)s1 [Compound 398]
< 0.25	COc1cnc(C(F)F)cc1-c1cc(Cc2nnc(C)o2)ncc1C(=O)Nc1ncc(C#CC2CC2)s1 [Compound 401]
< 0.25	COc1cnc(C(F)F)cc1-c1cc(-n2cccc(OC)c2=O)ncc1C(=O)Nc1nnc(C#CC2CC2)s1 [Compound 438]
8.1	COc1cnc(Cl)cc1-c1cc(N2CCCS2(=O)=O)ccc1C(=O)Nc1nnc(C#CC2CC2)s1 [Compound 311]
> 100	COc1cnc(C(F)F)cc1-c1nc(-c2nnc(C)o2)ccc1C(=O)Nc1nnc(C#CC2CC2)s1 [Compound 391]
0.8	COc1cnc(Cl)cc1-c1cc(-c2n[nH]cc2C)ccc1C(=O)Nc1nnc(C#CC2CC2)s1 [Compound 298]
< 0.25	COc1cnc(C(F)F)cc1-c1cc(C#Cc2cnn(C)c2)ncc1C(=O)Nc1nnc(C#CC2CC2)s1 [Compound 185]
< 0.25	COc1cnc(C(F)F)cc1-c1cc(-c2cnn(C)c2)ncc1C(=O)Nc1nnc(C#CC2CC2)s1 [Compound 252]
< 0.25	COc1ccc(C(F)(F)F)cc1-c1cn(CC(N)=O)c(=O)cc1C(=O)Nc1nnc(C#CC2CC2)s1 [Compound 95]
3.2	COc1cnc(Cl)cc1-c1cc(N2CCC(O)C2=O)ccc1C(=O)Nc1nnc(C#CC2CC2)s1 (centres unmarked) [Compound 277]
< 0.25	COc1cnc(Cl)nc1-c1cc(CC#N)ccc1C(=O)Nc1nnc(C#CC2CC2)s1 [Compound 407]
0.28	COc1cnc(C(F)F)cc1-c1cc(C#CC2CCOCC2)ncc1C(=O)Nc1nnc(C#CC2CC2)s1 [Compound 268, N-(5-(cyclopropylethynyl)-1,3,4-thiadiazol-2-yl)-2′-(difluoromethyl)-5′-methoxy-6-((tetrahydro-2H-pyran-4-yl)ethynyl)-[4,4′-bipyridine]-3-carboxamide]
7.2	COc1cnc(C(F)F)cc1-c1cc(N2CC3(CCOCC3)CC2=O)ncc1C(=O)Nc1nnc(C#CC2CC2)s1 [Compound 360]
0.54	Cc1cc(C#Cc2nnc(NC(=O)c3cc(=O)n(C)cc3-c3cc(Cl)ncc3OC(F)F)s2)n[nH]1 [Compound 98]
0.88	COc1cnc(C(F)F)cc1-c1cc(Cl)ncc1C(=O)Nc1ncc(C#CC2CC2)s1 [Compound 289]
13	COc1cnc(C(F)F)cc1-c1cc(N2CC3(COC3)C2)ncc1C(=O)Nc1nnc(C#CC2CC2)s1 [Compound 162]
< 0.25	COc1cnc(C(F)F)cc1-c1cc(C)ncc1C(=O)Nc1nnc(C#CC2CC2)s1 [Compound 278]
9.9	COc1cnc(C(F)F)cc1-c1cc(C2CCOCC2)ncc1C(=O)Nc1nnc(C#CC2CC2)s1 [Compound 270]
< 0.25	COc1cnc(C(F)F)cc1-c1cc(-c2cnn(CCO)c2)ccc1C(=O)Nc1nnc(C#CC2CC2)s1 [Compound 134]
0.27	COc1cnc(C(F)F)cc1-c1cc(N2CCN(C)C3(CC3)C2=O)ncc1C(=O)Nc1ncc(C#CC2CC2)s1 [Compound 465]
